Structures can show the parent of a compound that is named as a salt.
How the values were obtained:
Format in all cases: cell-based
HTB 16 = test: Antiproliferative activity in human tumor cell line HTB 16; conditions: ovarian tumor line; PROTOCOL 1 and PROTOCOL 2
Procedure: (§1) PROTOCOL 1, 2, and 3 are described in greater detail hereinbelow. In general, according to PROTOCOLS 1 and 2, the target ABAE and/or Human Tumor cells are exposed to the compound of Formula I for 48 hours. PROTOCOL 3 exposes ABAE cell to the compound for 4 days. A detailed description of the protocol is as follows:
(§2) Antiproliferative Activity in Human Tumor and Adult Bovine Aortic Endothelial (ABAE) Cell Lines
(§3) The antiproliferative activity of the compounds of Formula I of the present invention is evaluated in a panel comprised of human tumor cell lines and an adult bovine aortic endothelial cell line (ABAE). The human tumor cell lines are from:
(§4) All cell lines are maintained in log phase in RPMI 1640 media, supplemented with 5% fetal calf serum, penicillin/streptomycin and 2 mM L-glutamine. Cultures are renewed after 20 passages with cells from a fresh stock of batch-frozen early passage cells. Cell lines are routinely checked for mycoplasma contamination (Genprobe). In a laminar flow hood, cells (1-5×10^4) are plated into 96-well microtiter plates in a volume of 0.1 ml/well with a bulk microtiter dispenser (Denley). […] At this concentration, dimethylsulfoxide has no effect on cell growth. Compounds are added using a Tomtec dispenser which simultaneously dispenses from one 96-well plate, containing the drug dilutions, to the plates containing the cells. After two days of continuous drug exposure, 50% cold trichloroacetic acid (TCA) is added to 10% final concentration to fix the cells, and after 60 minutes at 4° C., the TCA is aspirated and the plates are washed 5 times with deionized water using a microtiter plate washer. The number of cells on the plate are quantitated using a protein dye-binding assay (Monks et al., 1991). A 0.4% solution of the dye, sulforhodamine B, in glacial acetic acid is added to the plates, and the plates are washed 5 times with 1% glacial acetic acid using the automatic plate washed. The bound stain is solubilized with 0.1 ml of 10 mM Tris base. The optical densities are read from an automatic spectrophotometric plate reader (Dynatech) directly to a main frame computer (VAX 8600).
(§5) Positive controls, that include standard chemotherapeutic drugs (i.e., adriamycin, cisplatin, etc.), are included in every experiment.
(§6) Background optical density measurements (complete media-cells, and complete media+drug-cells) are automatically subtracted from the appropriate control and test wells. Mean values and standard errors are determined from duplicate wells. A measure is also made of the optical density at time when the drugs are added. The number of cells after treatment (P), as % of control, is calculated for every concentration of drug, as follows: [formula] wherein: T is optical density measurement for treated cells after 48 hours;
(§7) C is optical density measurement for untreated cells after 48 hours;
(§8) Co is optical density measurement for cells at the time of drug addition.
(§9) IC50 of growth inhibition is calculated from the sets of P values using the RS-1 data package (BBN Software).
(§10) The antiproliferative activity of the compounds of Formula I is evaluated in a panel comprised of human tumor cell lines and an adult bovine aortic endothelial cell line (ABAE) as listed in PROTOCOL 1. This assay is a modification of PROTOCOL 1. The modifications include:
(§11) 1) each concentration for each compound is tested in a single well;
(§12) 2) compounds are tested at 20, 4, 0.8, 0.16 microgram/ml and additionally in some experiments at 100 and 0.32 microgram/ml;
(§13) 3) samples are pipetted into a 96-well plate for each of the cell lines by a Beckman Biomek 1000 SL robot;
(§14) 4) after fixing with TCA each well is washed with 0.35 ml distilled water twice, not five times;
(§15) 5) after staining with sulforhodamine B each well is washed 3 times, not five times; […]

A2780S = test: Antiproliferative activity in human ovarian tumor cell line A2780S; conditions: PROTOCOL 1 and PROTOCOL 2
Procedure: as §1, §2, §3, §4, §5, §6, §7, §8, §9, §10, §11, §12, §13, §14, §15

A2780/DDP = test: Antiproliferative activity in human ovarian tumor cell line A2780/DDP; conditions: PROTOCOL 1 and PROTOCOL 2
Procedure: as §1, §2, §3, §4, §5, §6, §7, §8, §9, §10, §11, §12, §13, §14, §15

SW620 = test: Antiproliferative activity in human colon tumor cell line SW620; conditions: PROTOCOL 1 and PROTOCOL 2
Procedure: as §1, §2, §3
(§16) 2) Colon tumors: MIP, CaCo2, and SW620.
as §4, §5, §6, §7, §8, §9, §10, §11, §12, §13, §14, §15

Human Tumor Cell lines = test: Antiproliferative activity in panel of human tumor cell lines; conditions: average over the tested human tumor cell lines
Procedure: as §1, §2, §3, §16, §4, §5, §6, §7, §8, §9, §10, §11, §12, §13, §14, §15

MIP = test: Antiproliferative activity in human colon tumor cell line MIP; conditions: PROTOCOL 1 and PROTOCOL 2
Procedure: as §1, §2, §3, §16, §4, §5, §6, §7, §8, §9, §10, §11, §12, §13, §14, §15

[1] = system: Adult Bovine Aortic Endothelial (ABAE) cell line; test: Antiproliferative activity in ABAE cells, PROTOCOL 1 (48 h, SRB)
Procedure: PROTOCOL 1, 2, and 3 are described in greater detail hereinbelow. In general, according to PROTOCOLS 1 and 2, the target ABAE and/or Human Tumor cells are exposed to the compound of Formula I for 48 hours. PROTOCOL 3 exposes ABAE cell to the compound for 4 days. A detailed description of the protocol is as follows: Antiproliferative Activity in Human Tumor and Adult Bovine Aortic Endothelial (ABAE) Cell Lines The antiproliferative activity of the compounds of Formula I of the present invention is evaluated in a panel comprised of human tumor cell lines and an adult bovine aortic endothelial cell line (ABAE). […] The number of cells on the plate are quantitated using a protein dye-binding assay (Monks et al., 1991). […] The optical densities are read from an automatic spectrophotometric plate reader (Dynatech) directly to a main frame computer (VAX 8600). […] Mean values and standard errors are determined from duplicate wells. […] The number of cells after treatment (P), as % of control, is calculated for every concentration of drug, as follows: [formula] wherein: T is optical density measurement for treated cells after 48 hours; C is optical density measurement for untreated cells after 48 hours; Co is optical density measurement for cells at the time of drug addition. IC50 of growth inhibition is calculated from the sets of P values using the RS-1 data package (BBN Software). […]

[2] = system: Adult Bovine Aortic Endothelial (ABAE) cell line; test: Antiproliferative activity in ABAE cells, PROTOCOL 2 (48 h, SRB, single well)
Procedure: as §1, §2, §10, §11, §12, §13, §14
5) after staining with sulforhodamine B each well is washed 3 times, not five times;
6) the growth inhibition (I) as % of control, is calculated using the RS-1 data package (BBN Software), for every concentration of drug, as follows: [formula] wherein: T is optical density measurement for treated cells after 48 hours;
as §7
7) IC50 of growth inhibition is determined from graphically from dose response curves, as is known in the art.
Table 1 presents the results depicting the antiproliferative activity of the compounds of Formula I against an Adult Bovine Aortic Endothelial (ABAE) cell line, as evaluated by PROTOCOL 1 and PROTOCOL 2. The results are presented in terms of IC50 and are as follows.

[3] = system: Adult Bovine Aortic Endothelial (ABAE) cell line; test: Antiproliferative activity in ABAE cells, PROTOCOL 3 (4 days, cell count); conditions: PROTOCOL 3, FIG. 1
Procedure: as §1
Antiproliferative Activity in Adult Bovine Aortic Endothelial (ABAE) Cell Line
ABAE cells are grown in DMEM media (Mediatech, Washington, D.C.) supplemented with 10% calf serum (Hyclone). ABAE cells are plated in 24-well dishes at 8,000 cells/well, followed by the addition of increasing concentrations of 7-[substituted amino]-9-[(substituted glycyl)amido]-6-demethyl-6-deoxytetracyclines. After four days, the cells are detached and counted. […] The growth inhibition (I) as % of control is calculated as follows: [formula] wherein: Nc is the number of cells in untreated wells;
Nt is the number of cells in treated wells;
No is the number of plated cells.
IC50 of growth inhibition is determined from the sets of I values plotted by Kaleidograph software (Abelbeck Software).
In addition FIG. 1, presents the dose response curve of the compound of Example 6 for the above ABAE cell line obtained by PROTOCOL 3.

Structure (SMILES)	HTB 16 IC50 (HTB 16) [µg/mL]	A2780S IC50 (A2780S) [µg/mL]	A2780/DDP IC50 (A2780/DDP) [µg/mL]	SW620 IC50 (SW620) [µg/mL]	AVERAGE IC50 FOR TUMOR CELL LINES (Human Tumor Cell lines) [µg/mL]	MIP IC50 (MIP) [µg/mL]	IC50 PROTOCOL 1 [1] [µg/mL]	IC50 PROTOCOL 2 ([2]; ABAE cells, 48 h, PROTOCOL 2) [µg/mL]	activity in preventing proliferation of ABAE cells compared to Minocycline ([2]; Table 1)	inhibits 50% of cell growth [3]
CN(C)[C@@H]1C(O)=C(C(N)=O)C(=O)[C@@]2(O)C(O)=C3C(=O)c4c(ccc(NC(=O)CNCC5CC5)c4O)CC3CC12.Cl.Cl (stereo partly drawn) [Example 7, [4S-(4alpha,12aalpha)]-9-[[[(Cyclopropylmethyl)amino)acetyl]amino]-4-(dimethylamino)-1,4,4a,5,5a,6,11,12a-octahydro-3,10,12,12a-tetrahydroxy-1,11-dioxo-2-naphthacenecarboxamide dihydrochloride]	3.3	4.9	3.9	3.9	4.5	6.3				
CN(C)CC(=O)Nc1ccc2c(c1O)C(=O)C1=C(O)[C@]3(O)C(=O)C(C(N)=O)=C(O)[C@@H](N(C)C)C3CC1C2.Cl.Cl (stereo partly drawn) [Example 8, [4S-(4alpha,121aalpha)]-9-[[(Dimethylamino)acetyl]-amino]-4-(dimethylamino)-1,4,4a,5,5a,6,11,12a-octahydro-3,10,12,12a-tetrahydroxy-1,11-dioxo-2-naphthacenecarboxamide dihydrochloride]	4.1	4.8	5.8	5.0	5.1	6.0				
CN(C)[C@@H]1C(O)=C(C(N)=O)C(=O)[C@@]2(O)C(O)=C3C(=O)c4c(ccc(NC(=O)CN5CCCCC5)c4O)CC3CC12 (stereo partly drawn) [Example 3, [7S-(7alpha,10aalpha)]-N-9-(Aminocarbonyl)-7-(dimethylamino)-5,5a,6,6a,7,10,10a,12-octahydro-1,8,10a,11-tetrahydroxy-10,12-dioxo-1-piperidineacetamidedihydrochloride]	2.3	2.5	2.7	2.8	2.7	3.0				
CC(C)CNCC(=O)Nc1ccc2c(c1O)C(=O)C1=C(O)[C@]3(O)C(=O)C(C(N)=O)=C(O)[C@@H](N(C)C)C3CC1C2.Cl.Cl (stereo partly drawn) [Example 9, [b 4S-(4alpha,12aalpha)]-4-(Dimethylamino)-1,4,4a,5,5a,-6,11,12a-octahydro-3,10,12,12a-tetrahydroxy-9-[[[(2-methylpropyl)amino]acetyl]amino]-1,11-dioxo-2-naphthacenecarboxamide dihydrochloride]	5.0	3.5	7.7	5.7	5.5	5.75				
CCCNCC(=O)Nc1ccc2c(c1O)C(=O)C1=C(O)[C@]3(O)C(=O)C(C(N)=O)=C(O)[C@@H](N(C)C)C3CC1C2.Cl.Cl (stereo partly shown) [Example 4]	3.2	3.2	3.1	1.3	2.85	3.4	5.2			
CN(C)[C@@H]1C(O)=C(C(N)=O)C(=O)[C@@]2(O)C(O)=C3C(=O)c4c(ccc(NC(=O)CN5CCCC5)c4O)CC3CC12.Cl.Cl (stereo partly shown) [Example 5]	2.3	2.5	2.7	2.8	2.7	3.0				
CCCCNCC(=O)Nc1ccc2c(c1O)C(=O)C1=C(O)[C@]3(O)C(=O)C(C(N)=O)=C(O)[C@@H](N(C)C)C3CC1C2.Cl (stereo partly drawn) [Example 6, [4S-(4alpha,12aalpha)]-9-[[(Butylamino)acetyl]amino]-4-(dimethylamino)-1,4,4a,5,5a,6,11,12a-octahydro-3,10,12,12a-tetrahydroxy-1,11-dioxo-2-naphthacenecarboxamide monohydrochloride]	2.9	3.4	3.3	3.2	3.2	3.4		4	extraordinary activity in preventing the proliferation of ABAE cells as compared to the prior art compound, Minocycline	approximately 3 μg/ml

— patent US5563130A, “Methods for inhibiting angiogenesis, proliferation of endothelial or tumor cells and tumor growth” (American Cyanamid Company, priority 1994, dated 1996)
